From patent publication US20200055897A1, “MODIFIED PEPTOIDS” (Technion Research & Development Foundation Limited, priority 2017, published 2020)
Converted amounts (≈) assume the structure as drawn. “And” between values parts separate entries of the source, which are not always exact repeats. Identical values can stand only once. Like-named read-outs stand apart in the source and are kept apart here. Starred links: 1 amine or outer side, 2 acyl side, 3 side chain; linkers in the order of their positions; H or OH if unused. Non-standard residues stand in square brackets, D forms with d. Residues, ends and D or L forms follow the SMILES beside them. *: point of attachment. N(CH2CH2O-4'-Tpy)Gly = O=C(O)CNCCOc1cc(-c2ccccn2)nc(-c2ccccn2)c1; N(1S-cyclohexylethyl)Gly = C[C@H](NCC(=O)O)C1CCCCC1; Gly(N-CH2CH2C6H4-4Cl) = O=C(O)CNCCc1ccc(Cl)cc1; NMeGly(N-(2-F-benzyl)) = CN(CC(=O)*)Cc1ccccc1F; Acetyl(2-(piperazin-1-yl)) = O=C(CN1CCNCC1)*; X2 = O=C(CN(Cc1ccc2cccc(O)c2n1)[*:1])[*:2]; Gly(Nα-NHCO2Et) = CCOC(=O)NNCC(=O)O; Nrpe = C[C@@H](NCC(=O)O)c1ccccc1; X4 = O=C(CN1CCCN([*:1])CC1)[*:2]; Nspe = C[C@H](NCC(=O)O)c1ccccc1; X1 = O=C(CN1CCN([*:1])CC1)[*:2]; Nphe = O=C(O)CNCc1ccccc1; X5 = NC(=O)CN1CCN(*)CC1; X3 = O=C(CN1CCCNCC1)*

Key:
[1] = General method for water solubility test (gradual addition of water to 1 mg peptoid until clear); type: physicochemical
Method: 1 mg peptoid was placed in an Eppendorf container and water was added gradually (e.g., […] per addition) until a clear solution was obtained. The solubility test was repeated three times and average values are presented. The limit of the test was typically 2.0×10^2 mg/liter (i.e., 1 mg per 5 ml).
Water solubility tests were carried out by a gradual addition of 5 μl distilled water to 1 mg peptoid until a clear solution was obtained. This assay was repeated three times and results were averaged.

[2] = Circular dichroism (CD) spectra of peptoids in water (temperature and concentration dependence); type: physicochemical; conditions: for Aggregation in water from concentration dependence of CD spectra: 40 to 180 μM
Method: Circular dichroism (CD) measurements were performed using a J-810-150S circular dichroism spectropolarimeter (Jasco). Spectra were obtained in a 1 mm path-length fused quartz cell. Prior to taking measurements, 5 mM stock oligomer solution was constituted in 100% water. The appropriate dilutions were made immediately before the measurements. Eight scans were taken for each sample at a scan rate of 1 nm/second at 1 nm increments. Data are expressed in terms of per-residue molar ellipticity (degrees*cm^2/dmol) calculated per mole of amide groups present.
(§1) In order to assess whether the dissolved peptoids form aggregates, fluorescence spectra were determined for P18 and P21 (which comprise Ns1npe) dissolved in water. Aggregation of peptoids with Ns1npe groups has been reported to be associated with an excimer band at 392 nm [Fuller et al., Org. Lett. 2013, 15:5118-5121]. In addition, CD spectra of P21 were determined at various concentrations ranging from 40 to 180 μM in water.
Similarly, CD spectra of P2, P5 and P8 (which comprise Nspe rather than Ns1npe as in P18 and P21) were determined in order to assess whether the dissolved peptoids form aggregates in water.

[3] = Fluorescence emission spectra in water (excimer band, aggregation); type: physicochemical; conditions: 40 μM
Method: as §1

[4] = Selectivity towards Cu^2+ by UV-visible absorption spectra (metal ion mixture vs Cu^2+-complex); type: binding; conditions: water; 1 equivalent peptoid, mixture of Cu^2+, Co^2+, Zn^2+, Fe^2+, Mn^2+ and Ni^2+
Method: UV-visible spectrometry measurements were performed using a Cary™ 60 UV-Vis spectrophotometer (Agilent) with Czerny-Turner monochromator. In a typical UV-visible experiment, 10 μl of a peptoid solution (5 mM) was diluted in 3 ml H2O (to obtain a 17 μM concentration) and the UV-visible spectrum was measured. Afterwards 1 equivalent of Cu^2+ (10 μl, 5 mM) or solution containing mixtures of metal ions (1 equivalent Cu^2+, Co^2+, Zn^2+, Mn^2+, Ni^2+ and Fe^3+, 5 mM, 10 μl) was added and the spectrum was measured again.
In order to evaluate the selectivity of P33 and P34 towards Cu^2+, 1 equivalent of each peptoid in water was added to 1 equivalent of a mixture solution containing the metal ions Cu^2+, Co^2+, Zn^2+, Fe^2+, Mn^2+ and Ni^2+, and UV-visible absorption spectra were recorded and compared to UV-visible absorption of Cu^2+-complexes of the peptoids. It has been previously shown that comparing UV-visible absorption spectra is a highly reliable tool to assess the selectivity of the peptoid chelators.

[5] = literature report (Baskin & Maayan 2016); cited from earlier work
[6] = water, average of three tests, limit of test 2.0×10^2 mg/liter, read-out: Water solubility

For `C[C@@H](c1ccccc1)N(CC(N)=O)C(=O)CN(C(=O)CN(C(=O)CN(C(=O)CN(C(=O)CN(C(=O)CN1CCN(C(=O)CN2CCNCC2)CC1)[C@@H](C)c1ccccc1)[C@@H](C)c1ccccc1)[C@@H](C)c1ccccc1)[C@@H](C)c1ccccc1)[C@@H](C)c1ccccc1` [Peptoid P5, (Nspe)6-(Npz)2] ({Acetyl(2-(piperazin-1-yl))}-[X1][Nspe][Nspe][Nspe][Nspe][Nspe][Nspe]-NH2), the “Water solubility relative to that of P2” value [1] was “over 50 times”, the solubility [1] was 58 mg/mL (≈ 46.9 mM) and the “Water solubility relative to that of P2 at pH 10.5” value ([1]; pH 10.5) was 30 times. For the same compound, the “Aggregation in water from concentration dependence of CD spectra” value (from here on “Aggregation in water”) [2] was “no aggregation”.

For `C[C@@H](c1cccc2ccccc12)N(CC(N)=O)C(=O)CN(C(=O)CN(C(=O)CN(C(=O)CN1CCN(C(=O)CN2CCNCC2)CC1)[C@@H](C)c1cccc2ccccc12)[C@@H](C)c1cccc2ccccc12)[C@@H](C)c1cccc2ccccc12` [Peptoid P18, (Ns1npe)4-(Npz)2], the solubility [1] was 13.3 mg/mL (≈ 11.9 mM) and the “Excimer band near 392 nm (aggregation)” value [3] was “no excimer band was observed”.

In the case of `C[C@H](NCC(=O)N(CC(=O)N(CC(=O)N(CC(=O)N(CCOc1cc(-c2ccccn2)nc(-c2ccccn2)c1)CC(=O)N(CC(=O)N1CCN(CC(N)=O)CC1)[C@@H](C)c1ccccc1)[C@@H](C)c1ccccc1)[C@@H](C)c1ccccc1)Cc1ccc2cccc(O)c2n1)c1ccccc1` [Peptoid P34, Npz-Nspe-Ntrp-(Nspe)2-Nhq-Nspe] (H-[Nspe][X2][Nspe][Nspe][N(CH2CH2O-4'-Tpy)Gly][Nspe]-X5; N-terminus assumed), the solubility [1] is reported as 8.3 mg/mL (≈ 6.22 mM) and the “Selective binding to Cu^2+” value [4] is reported as “selectively binds to Cu^2+”.

For `C[C@@H](c1ccccc1)N(CC(N)=O)C(=O)CN(CCOc1cc(-c2ccccn2)nc(-c2ccccn2)c1)C(=O)CN(C(=O)CN(C(=O)CN(Cc1ccc2cccc(O)c2n1)C(=O)CN(C(=O)CN1CCNCC1)[C@@H](C)c1ccccc1)[C@@H](C)c1ccccc1)[C@@H](C)c1ccccc1` [Peptoid P33, Nspe-Ntrp-(Nspe)2-Nhq-Nspe-Npz] ({Acetyl(2-(piperazin-1-yl))}-[Nspe][X2][Nspe][Nspe][N(CH2CH2O-4'-Tpy)Gly][Nspe]-NH2; N-terminus assumed), the solubility [1] was 244 mg/mL (≈ 183 mM) and the “Selective binding to Cu^2+” value [4] was “does not selectively bind to Cu^2+”.

For `C[C@H](NCC(=O)N(CC(=O)N(CC(=O)N(CC(=O)N(CCOc1cc(-c2ccccn2)nc(-c2ccccn2)c1)CC(=O)N(CC(N)=O)[C@@H](C)c1ccccc1)[C@@H](C)c1ccccc1)[C@@H](C)c1ccccc1)Cc1ccc2cccc(O)c2n1)c1ccccc1` [Peptoid P32, reference compound] (H-[Nspe][X2][Nspe][Nspe][N(CH2CH2O-4'-Tpy)Gly][Nspe]-NH2; N-terminus assumed), the solubility [1] is given as less than 0.2 mg/mL and the “Selective chelation of Cu^2+ (reported)” value [5] is given as “selective peptoid chelator for Cu^2+”.

In the case of `C[C@@H](c1cccc2ccccc12)N(CC(N)=O)C(=O)CN(C(=O)CN(C(=O)CN(C(=O)CN1CCN(C(=O)CN2CCN(C(=O)CN3CCNCC3)CC2)CC1)[C@@H](C)c1cccc2ccccc12)[C@@H](C)c1cccc2ccccc12)[C@@H](C)c1cccc2ccccc12` [Peptoid P21, (Ns1npe)4-(Npz)3], the solubility [1] is reported as 176 mg/mL (≈ 142 mM), the “Aggregation in water” value [2] is reported as “some concentration-dependent aggregation” and the “Excimer band near 392 nm (aggregation)” value [3] is reported as “no excimer band was observed”.

For `C[C@@H](c1ccccc1)N(CC(N)=O)C(=O)CN(C(=O)CN(C(=O)CN(C(=O)CN(C(=O)CN(C(=O)CN1CCNCC1)[C@@H](C)c1ccccc1)[C@@H](C)c1ccccc1)[C@@H](C)c1ccccc1)[C@@H](C)c1ccccc1)[C@@H](C)c1ccccc1` [Peptoid P2, (Nspe)6-Npz] ({Acetyl(2-(piperazin-1-yl))}-[Nspe][Nspe][Nspe][Nspe][Nspe][Nspe]-NH2), the solubility [1] was ~900 µM and 1000 µg/mL, the solubility ([1]; pH 4.5) was 1.66 mg/mL (≈ 1.49 mM) and the solubility ([1]; pH 7.5) was 1.28 mg/mL (≈ 1.15 mM). For the same compound, the solubility ([1]; pH 10.5) was less than 0.2 mg/mL, the “Change of CD spectrum (helical structure) in water with temperature” value ([2]; 0° C. to 90° C.) was “does not change significantly” and the “Aggregation in water” value [2] was “no aggregation”.

In the case of `C[C@@H](c1ccccc1)N(CC(N)=O)C(=O)CN(C(=O)CN(C(=O)CN(C(=O)CN(C(=O)CN(C(=O)CN1CCCN(C(=O)CN2CCCNCC2)CC1)[C@@H](C)c1ccccc1)[C@@H](C)c1ccccc1)[C@@H](C)c1ccccc1)[C@@H](C)c1ccccc1)[C@@H](C)c1ccccc1` [Peptoid P8, (Nspe)6-(Nhpz)2] (X3-[X4][Nspe][Nspe][Nspe][Nspe][Nspe][Nspe]-NH2), the solubility [1] is reported as 510 mg/mL (≈ 403 mM) and the “Aggregation in water” value [2] is reported as “no aggregation”.

With `C[C@@H](C1CCCCC1)N(CC(=O)N(CCc1ccc(Cl)cc1)CC(=O)N(CC(=O)N(CC(=O)N(CC(=O)N1CCN(CC(=O)N2CCN(CC(=O)N3CCN(CC(N)=O)CC3)CC2)CC1)Cc1ccccc1)Cc1ccccc1)[C@@H](C)C1CCCCC1)C(=O)CN(C)Cc1ccccc1F` [Peptoid P23, (Npz)3-(Npm)2-Nsch-Ncpe-Nsch-Nfpm] ({NMeGly(N-(2-F-benzyl))}-[N(1S-cyclohexylethyl)Gly][Gly(N-CH2CH2C6H4-4Cl)][N(1S-cyclohexylethyl)Gly][Nphe][Nphe][X1][X1]-X5) the solubility [1] was 135 mg/mL (≈ 96.5 mM).

`CCOC(=O)NN(CC(=O)N(CC(N)=O)[C@H](C)c1ccccc1)C(=O)CN(C(=O)CN(NC(=O)OCC)C(=O)CN(C(=O)CN(NC(=O)OCC)C(=O)CN1CCN(C(=O)CN2CCNCC2)CC1)[C@H](C)c1ccccc1)[C@H](C)c1ccccc1` [Peptoid P30] ({Acetyl(2-(piperazin-1-yl))}-[X1][Gly(Nα-NHCO2Et)][Nrpe][Gly(Nα-NHCO2Et)][Nrpe][Gly(Nα-NHCO2Et)][Nrpe]-NH2) gave a solubility [1] of 177 mg/mL (≈ 149 mM).

With `C[C@@H](C1CCCCC1)N(CC(=O)N(CCc1ccc(Cl)cc1)CC(=O)N(CC(=O)N(CC(=O)N(CC(=O)N1CCN(CC(N)=O)CC1)Cc1ccccc1)Cc1ccccc1)[C@@H](C)C1CCCCC1)C(=O)CN(C)Cc1ccccc1F` [Peptoid P17, Npz-(Npm)2-Nsch-Ncpe-Nsch-Nfpm] ({NMeGly(N-(2-F-benzyl))}-[N(1S-cyclohexylethyl)Gly][Gly(N-CH2CH2C6H4-4Cl)][N(1S-cyclohexylethyl)Gly][Nphe][Nphe]-X5) the solubility [1] was less than 0.2 mg/mL.

`C[C@H](c1ccccc1)N(CCC(N)=O)C(=O)CCN(C(=O)CCN(C(=O)CCN(C(=O)CCN(C(=O)CCN(C(=O)CN1CCN(C(=O)CN2CCN(C(=O)CN3CCNCC3)CC2)CC1)[C@H](C)c1ccccc1)[C@H](C)c1ccccc1)[C@H](C)c1ccccc1)[C@H](C)c1ccccc1)[C@H](C)c1ccccc1` [Peptoid P27] gave a solubility [1, 6] of 196 mg/mL (≈ 135 mM).

For `C[C@@H](c1ccccc1)N(CC(N)=O)C(=O)CN(C(=O)CN(C(=O)CN(C(=O)CN(C(=O)CN(C(=O)CN1CCN(C(=O)CN2CCN(C(=O)CN3CCNCC3)CC2)CC1)[C@@H](C)c1ccccc1)[C@@H](C)c1ccccc1)[C@@H](C)c1ccccc1)[C@@H](C)c1ccccc1)[C@@H](C)c1ccccc1` [Peptoid P6, (Nspe)6-(Npz)3] ({Acetyl(2-(piperazin-1-yl))}-[X1][X1][Nspe][Nspe][Nspe][Nspe][Nspe][Nspe]-NH2), the “Water solubility at pH 10.5 (in words)” value ([1]; pH 10.5) was “highly soluble”, the “Water solubility relative to that of P2 at pH 10.5” value ([1]; pH 10.5) was 106 times and the solubility [1, 6] was 88.6 mg/mL (≈ 65 mM).

`CCOC(=O)NN(CC(=O)N(CC(N)=O)[C@H](C)c1ccccc1)C(=O)CN(C(=O)CN(NC(=O)OCC)C(=O)CN(C(=O)CN(NC(=O)OCC)C(=O)CN1CCNCC1)[C@H](C)c1ccccc1)[C@H](C)c1ccccc1` [Peptoid P29] ({Acetyl(2-(piperazin-1-yl))}-[Gly(Nα-NHCO2Et)][Nrpe][Gly(Nα-NHCO2Et)][Nrpe][Gly(Nα-NHCO2Et)][Nrpe]-NH2) showed a solubility [1] of 50.6 mg/mL (≈ 47.8 mM).
